# “Also recorded” adds a separate entry of the source.
# Legend:
# [1] = tested on: thoracic aortic rings; experiment: Organ bath studies with isolated thoracic aortic rings (endothelial function) from stented, treated rats; format: in vivo, Wistar rats
# Description: Twenty-eight male Wistar rats (Harlan, Horst, Netherlands) weighing 450 to 520 grams were anesthetized with O2, N2O and isofluorane (Abbot B.V., Hoofddorp, Netherlands). A pre-mounted 2.5×9 mm BeStentTM 2 (Medtronic-Bakken Research, Maastricht, the Netherlands) was implanted in the abdominal aorta as previously described, or a sham operation was performed.^35 Subsequently, an osmotic minipump with a pumping rate of 0.25 μl/hour, lasting for 28 days (Model 2004, Alzet, Charles River Nederland, Maastricht, Netherlands), was implanted subcutaneously for drug delivery via a catheter in the jugular vein. […] rats received angiotensin-(1-7) (Bachem, Weil am Rhein, Germany) (24 μg/kg/hour) (n=7) or saline (0.25 μl/hour) (n=10). Sham-operated rats received saline infusion (n=6). […] At this concentration, Ang-(1-7) binds to the Mas receptor and has subsequent functional effects. Five rats died peri-operatively due to rupture of the aorta. After 28 days, the animals were anesthetized and heparinized with 500 IU intravenously (Leo Pharma B.V., Breda, Netherlands). The abdominal aortas were subsequently harvested, fixed, embedded in methylmetacrylate, sectioned and stained for histological analysis. […] The endothelium-dependant vasodilatation was assessed by a cumulative dose of meatcholine (10 nM to 10 mM). […] Data are expressed as mean value±standard error of the mean (SEM). […]
# [2] = in vivo; settings: male, Wistar, rat, iv, 24 ug/kg/hour
# Description: Twenty-eight male Wistar rats (Harlan, Horst, Netherlands) weighing 450 to 520 grams were anesthetized with O2, N2O and isofluorane (Abbot B.V., Hoofddorp, Netherlands). A pre-mounted 2.5×9 mm BeStent™ 2 (Medtronic-Bakken Research, Maastricht, the Netherlands) was implanted in the abdominal aorta as previously described, or a sham operation was performed.^35 Subsequently, an osmotic minipump with a pumping rate of 0.25 μl/hour, lasting for 28 days (Model 2004, Alzet, Charles River Nederland, Maastricht, Netherlands), was implanted subcutaneously for drug delivery via a catheter in the jugular vein. Stented rats received angiotensin-(1-7) (Bachem, Weil am Rhein, Germany) (24 μg/kg/hour) (n=7) or saline (0.25 μl/hour) (n=10). Sham-operated rats received saline infusion (n=6). […] At this concentration, Ang-(1-7) binds to the Mas receptor and has subsequent functional effects. Five rats died peri-operatively due to rupture of the aorta.
# [3] = tested on: stented rat abdominal aorta (neointimal formation); experiment: Rat abdominal aorta stenting model, histomorphometry and histology after 28 days; format: in vivo, Wistar rats
# Description: Twenty-eight male Wistar rats (Harlan, Horst, Netherlands) weighing 450 to 520 grams were anesthetized with O2, N2O and isofluorane (Abbot B.V., Hoofddorp, Netherlands). A pre-mounted 2.5×9 mm BeStentTM 2 (Medtronic-Bakken Research, Maastricht, the Netherlands) was implanted in the abdominal aorta as previously described, or a sham operation was performed.^35 Subsequently, an osmotic minipump with a pumping rate of 0.25 μl/hour, lasting for 28 days (Model 2004, Alzet, Charles River Nederland, Maastricht, Netherlands), was implanted subcutaneously for drug delivery via a catheter in the jugular vein. […] rats received angiotensin-(1-7) (Bachem, Weil am Rhein, Germany) (24 μg/kg/hour) (n=7) or saline (0.25 μl/hour) (n=10). Sham-operated rats received saline infusion (n=6). […] At this concentration, Ang-(1-7) binds to the Mas receptor and has subsequent functional effects. Five rats died peri-operatively due to rupture of the aorta. After 28 days, the animals were anesthetized and heparinized with 500 IU intravenously (Leo Pharma B.V., Breda, Netherlands). The abdominal aortas were subsequently harvested, fixed, embedded in methylmetacrylate, sectioned and stained for histological analysis. The endothelial function was tested in isolated thoracic aortic rings. Histomorphometrical analysis was performed on elastica van Gieson-stained sections by measurements of the proximal, middle and distal parts of each stent. To assess neointimal formation, areas within the external elastic lamina (EEL), internal elastic lamina (IEL) and lumen were measured by using digital morphometry. The neointimal area, media area, lumen area and the percentage of stenosis were calculated. The injury and inflammation scores were assessed as described by Schwartz et al. and Kornowski et al. Briefly, each strut was assigned a nominal score from 0 to 3 dependent upon the severity of the injury or inflammation. The average score is calculated by dividing the sum of scores by the number of struts. Total cell density and polymorphonuclear leukocyte density were determined in hematoxylin-eosin stained sections at ×400 magnification and expressed as ×100/mm^2. To assess a single measurement for each stent, the mean values of the proximal, middle and distal parts were calculated. Data are expressed as mean value±standard error of the mean (SEM). Statistical analysis between groups was performed by a student's t-test. Differences in dose-response curves between groups were tested by ANOVA for repeated measures using Greenhouse-Geisser correction for asphericity. Values of p=0.05 were considered statistically significant. For statistical analysis, SPSS software (Chicago, USA) was used.
# [4] = stented rats, 24 μg/kg/hour, mean ± SEM
smiles,measurement,setting,value
"CC[C@H](C)[C@H](NC(=O)[C@H](Cc1ccc(O)cc1)NC(=O)[C@@H](NC(=O)[C@H](CCCNC(=N)N)NC(=O)[C@@H](N)CC(=O)O)C(C)C)C(=O)N[C@@H](Cc1c[nH]cn1)C(=O)N1CCC[C@H]1C(=O)O [Ang-(1-7), angiotensin-(1-7)]",Relaxation on endothelium-independent vasodilator sodium nitrite,"[1]; sodium nitrite 10 mM, phenylephrine precontracted rings, vs sham and control",equal; also recorded: No differences
same,Contraction on phenylephrine,"[1]; thoracic aortic rings, phenylephrine 1 mM, mean ± SEM",254±29 μm
same,level at time molar,[2],~0.918 nM
same,Neointimal Area,[3]; [4],0.51 ± 0.05 mm^2
same,Neointimal Thickness,[3]; [4],112 ± 8 μm
same,Percentage Stenosis,[3]; [4],10.4 ± 1.0%
same,"IEL Area, change with treatment",[3]; vs saline control,−2%
same,"Mean Injury Score, change with treatment",[3]; vs saline control,18.2%
same,"Media Area, change with treatment",[3]; vs saline control,−12.8%
same,"Neointimal Area, change with treatment",[3]; vs saline control,−27.1%
same,"Neointimal Thickness, change with treatment",[3]; vs saline control,−20.6%
same,"Percentage Stenosis, change with treatment",[3]; vs saline control,−25.7%
same,Decrease in neointimal area,[3]; vs saline-treated stented rats,27%
same,Decrease in neointimal thickness,[3]; vs saline-treated stented rats,21%
same,Decrease in percentage stenosis,[3]; vs saline-treated stented rats,26%

# Source: patent publication US20050142130A1, “Use of angiotensin-(1-7) for preventing and/or reducing the formation of neointima” (priority 2001, published 2005)
